US9289446B2, “Myocardial perfusion imaging methods and compositions” (GILEAD SCIENCES, INC., priority 2002, dated 2016)

Assays:
[1] = Solubility of CVT-3146 in water and in MBA-containing composition; type: physicochemical; conditions: methylboronic acid co-solvent, dependence on pH
Method: A preferred A2A receptor agonist of this invention is CVT-3146. CVT-3146 has solubility in water of about 50 micrograms/mL. Therefore, CVT-3146 can be dissolved and administered in water so long as the desired weight amount of CVT-3146 can be administered in an acceptable volume. For example, a preferred dose of about 400 micrograms can be administered in 8 mL of water. If this volume is too great for administration purposes, or if the pharmaceutical composition will be stored at other than room temperature (RT), then additional ingredients can be added to the composition to increase the solubility of CVT-3146 in the composition and/or to provide the resulting pharmaceutical composition with other improved properties such as improved stability and storage properties. Pharmaceutical compositions of this invention that include CVT-3146 may include up to about 1 milligram/mL of CVT-3146. It is preferred that pharmaceutical compositions including CVT-3146 include from about 50 to about 250 micrograms/mL, and more preferably from about 50 to 150 micrograms/mL of CVT-3146.
In order to improve their solubility and storage properties, A2A receptor agonists of this invention can be administered in a pharmaceutical composition including a methylboronic acid (MBA) co-solvent. The methylboronic acid is added to the pharmaceutical composition to improve agonist solubility and shelf life. […]

[2] = system: coronary blood flow velocity (CBFv); assay: Example 1: open label study of CVT-3146 IV bolus on CBFv (Doppler flow wire) in patients undergoing coronary catheterization; type: in vivo, humans
Method: The purpose of this open label study was to determine the magnitude and duration of effect of CVT-3146 (10-500 μg) on CBFv in humans.
METHODS: Patients undergoing a clinically indicated coronary catheterization with no more than a 70% stenosis in any coronary artery and no more than a 50% stenosis of the study vessel had CBFv determined by Doppler flow wire. Study subject were selected after measuring baseline and peak CBFv after an intracoronary (IC) injection of 18 μg of Ado. Twenty-three patients, who were identified as meeting the study criteria of having a peak to baseline CBFv ratio of ≧2.5 in response to Adenosine, received a rapid (<10 sec) peripheral IV bolus of CVT-3146; Doppler signals were stable and interpretable over the time-course of the increase in CBFv in 17 patients.

[3] = Example 3: maximum tolerated dose and safety of single IV bolus CVT-3146 in healthy volunteers, supine and standing; type: in vivo; conditions: 30 μg/kg supine, 4 subjects per group
Method: This Example is a study performed to evaluate (1) the maximum tolerated dose of CVT-3146 and (2) the pharmacokinetic profile of CVT-3146 in healthy volunteers, after a single IV bolus dose.
The study was performed using thirty-six healthy, non-smoking male subjects between the ages of 18 and 59 and within 15% of ideal body weight.
The study was performed in phase 1, single center, double-blind, randomized, placebo-controlled, crossover, ascending dose study. Randomization was to CVT-3146 or placebo, in both supine and standing positions.
CVT-3146 was administered as an IV bolus (20, seconds) in ascending doses of […], 10, 20, and 30 μg/kg.
Subjects received either CVT-3146 of placebo on Day 1 supine, then crossover treatment on Day 2 supine. On Day 3, subjects received CVT-3146 or placebo standing, then crossover treatment on Day 4 standing.
Patient safety was monitored by ECG, laboratory assessments, and collection of vital signs and adverse events.
Pharmacodynamics: • The study evaluated the relationship of changes in heart rate to dose in both standing and supine positions and plasma concentration in the supine position. Results

[4] = system: blood flow velocity in LCX, BA, FA and PA; assay: Example 4: blood flow velocity (APV) in various vascular beds in the anesthetized dog; type: in vivo; conditions: 1.0 μg/kg iv bolus
Source text: CVT-3146 is a novel selective A2A adenosine receptor agonist being developed as a pharmacologic stressor for radionuclide myocardial perfusion imaging. […] The goal of this study was to determine the differential effects of CVT-3146 on blood flow velocity in various vascular beds.
The effects of CVT-3146 were quantified as the average peak blood flow velocity (APV) using intravascular Doppler transducer tipped catheter. Heart rate (HR) and systemic arterial blood pressure (BP) were also monitored.

[5] = system: heart rate (HR) and blood pressure (BP); assay: Example 5: heart rate, blood pressure and plasma catecholamines after i.v. bolus in awake rats (sympathoexcitation); type: in vivo
Method: The present study was carried out to determine whether CVT-3146, a selective A2A adenosine receptor agonist, causes sympathoexcitation.
CVT (0.31 μg/kg-50 μg/kg) was given as a rapid i.v. bolus to awake rats and heart rate (HR) and blood pressure (BP) were monitored. CVT-3146 caused an increase in BP and systolic pressure (SP) at lower doses while at higher doses there was a decrease in BP and SP. […] The increase in HR was evident at the lowest dose of CVT at which there was no appreciable decrease in BP. ZM241385 (30 μg/kg, N=5), an A2A receptor antagonist, attenuated the decrease in BP (CVT-3146: 14±3%, ZM: 1±1%) and the increase in HR (CVT: 27±3%, ZM: 18±3%) caused by CVT-3146. Pretreatment with metoprolol (MET, 1 mg/kg, n=5), a beta-blocker, attenuated the increase in HR (CVT: 27±3%, MET: 15±2%), but had no effect on hypotension caused by CVT-3146. In the presence of hexamethonium (HEX, 10 mg/kg, n=5), a ganglionic blocker, the tachycardia was prevented (CVT: 27±3%, HEX: −1±2%), but BP was further reduced (CVT: −11±2%, HEX: −49±5%).

Compound: CNC(=O)c1cnn(-c2nc(N)c3ncn([C@@H]4O[C@H](CO)[C@@H](O)[C@H]4O)c3n2)c1 [CVT-3146, (1-{9-[(4S,2R,3R,5R)-3,4-dihydroxy-5-(hydroxymethyl)oxolan-2-yl]-6-aminopurin-2-yl}pyrazol-4-yl)-N-methylcarboxamide]
- solubility in a pharmaceutical composition including MBA [1]: tends to decrease as the composition pH drops towards neutral
- maximal decrease in systolic blood pressure (BP) ([2]; 500 μg (n=3)): 8.7±7.6
- maximal increase in heart rate (HR) ([2]; 500 μg (n=3)): 18.7±4.0
- adverse events (AEs) ([2]; 500 μg dose, 3 patients): No AEs were noted
- adverse events (AEs) ([2]; 10-500 μg IV bolus): infrequent and included nausea, flushing, and headache; these were mild and self-limited
- time at which increase in CBFv was near peak, post onset of bolus ([2]; IV bolus, humans): 30 to 40 s
- Dizziness labeled as severe, number of subjects with AE [3]: 0
- Palpitation labeled as severe, number of subjects with AE [3]: 2
- Syncope labeled as severe, number of subjects with AE [3]: 0
- decrease in BP [4]: 12 mmHg
- time for effect on blood flow velocity to dissipate [4]: less than ten
- transient increase in HR [4]: 16 bpm
- effect on HR over dose ([5]; 0.31 μg/kg-50 μg/kg rapid i.v. bolus): dose-dependent increase in HR
- decrease in BP caused by CVT-3146 ([5]; CVT-3146 alone (comparison with ZM241385), awake rats): 14±3%
- change in BP caused by CVT-3146 ([5]; CVT-3146 alone (comparison with hexamethonium)): −11±2%
- increase in HR caused by CVT-3146 ([5]; CVT-3146 alone, awake rats): 27±3%
